Usually Ki stands for the dissociation constant of the complex between target and ligand, obtained from inhibition or displacement.

The values below come from patent US20070292967A1, “Assay for Ligands of the Ecdysone Receptor” (COMMONWEALTH SCIENTIFIC AND INDUSTRIAL RESEARCH OR, priority 2003, published 2007).

Assay type in all cases: binding
The target in test [1] is MpLBD, recombinant M. persicae ecdysone receptor (Myzus persicae, UniProt A3EZJ9). The test can be described thus: manual radioligand-based competitive inhibition assay ([3H]ponasterone A), MpLBD. The note with it: for ability to compete with [3H]ponasterone A / bind to MpLBD (in words): radioligand-based assay. The protocol: The ability of inokosterone and fluorescent conjugates thereof to bind to recombinant M. persicae ecdysone receptor was assessed using the conventional radioligand binding assay in a competetive inhibition format (adapted from Koelle et al., 1991).
These procedures were performed manually, as follows. Assays were performed in EcR40 buffer [25 mM Hepes, 40 mM KCl, 10% glycerol, 1 mM sodium EDTA, 3 mM sodium azide] containing 0.5 mg/ml bovine serum albumin (BSA). An extract containing recombinant M. persicae edcdysone receptor, MpLBD, was prepared as described above and diluted in EcR40 buffer containing 0.5 mg/ml BSA to a concentration that generated filter counts around 10 000 cpm when the assay was done in the absence of competing ligands. […] Assays were set up to contain different final concentrations of fluorescent ecdysteroid by including the appropriate volumes of the relevant stock solutions. […] Each incubation was performed in a final volume of […] at room temperature (22° C.) for 90 min, whereupon it was held on ice until the filter adsorption/wash steps could be performed. Three 140 μl aliquots from each completed incubation were applied to glass microfibre filters (GF/C 24 mm diameter, Whatman, Cat. No. 1822024); i.e., every incubation generated three filters, each of which had been wet using 140 μl of the incubation mixture. After exposure to the liquid for 30 sec at room temperature, the wet filter was transferred to a vacuum sinter apparatus (Pyrex Filter Holder, Millipore Corp., Cat. No. XX1002500) and washed rapidly. Washing was done using 2×5 ml of ice-cold EcR40 buffer, intersperced with 3×0.5 ml buffer applied around the circumference of the filter to ensure that its edges were thoroughly rinsed. The damp filter was then transferred to a scintillation vial. When all the filters had been thus processed, 7 ml Packard InstaGel Plus scintillant was added to each scintillation vial. The sealed vials were vortexed and then incubated at room temperature for at least 2 h, during which time the filters became transparent. The vials were then scintillation counted (1 min per filter, tritium program, Packard TriCarb 2100TR scintillation counter). Datapoints were reported as the mean cpm value ±SEM for the three replicate filters arising from each incubation.
The inhibitor concentration at this midpoint was deemed to be the IC50 value for the inhibitor.

In test [2] the target is T1, MpLBD (Myzus persicae, UniProt A3EZJ9).
T1 sequence (A3EZJ9 70-308): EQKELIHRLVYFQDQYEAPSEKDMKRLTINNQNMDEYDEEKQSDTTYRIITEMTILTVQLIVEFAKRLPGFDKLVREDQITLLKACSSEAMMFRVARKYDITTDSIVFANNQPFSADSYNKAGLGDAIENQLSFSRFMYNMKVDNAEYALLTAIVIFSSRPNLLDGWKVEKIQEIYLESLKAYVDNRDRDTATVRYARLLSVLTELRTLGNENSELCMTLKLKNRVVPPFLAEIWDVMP
T1 sequence (A3EZK0 32-259 partner): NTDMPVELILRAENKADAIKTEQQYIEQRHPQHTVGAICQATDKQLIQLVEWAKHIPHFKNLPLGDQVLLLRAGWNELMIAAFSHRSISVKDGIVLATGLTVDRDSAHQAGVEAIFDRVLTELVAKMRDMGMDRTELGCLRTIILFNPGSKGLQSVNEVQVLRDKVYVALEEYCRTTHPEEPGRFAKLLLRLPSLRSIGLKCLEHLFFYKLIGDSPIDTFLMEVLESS
The experiment in a line: miniaturized automated radioligand-based competition assay, MpLBD. The conditions noted are these: 1.3 nM [3H]ponasterone A, no CHAPS, read-out: Ki from radioligand-based MpLBD assay. The protocol:
(§1) Subsequently, a miniaturized and automated version of the radioligand-based competition assay was used with MpLBD and BtLBD to obtain Ki values for the non-radioactive, non-fluorescent ecdysteroids that would later be used to validate the competitive inhibition format of the FP assay. While the concept of the assay was unchanged from that described above, some aspects of its execution were different. […] The mixtures were again allowed to reach equilibrium, but this time for 4 h at room temperature. The MpLBD was then captured on a 96-filter array (Unifilter-96 GF/C, Packard, Cat. No. 6005174) and rinsed using the wash tool and vacuum block of the Biomek 2000. The back of each filter-plate was then manually sealed using a sheet of Packard BackSeal, and 25 μl Packard MicroScint-20 scintillation fluid was dispensed into each well. The top of each plate was sealed with Packard TopSeal-A and the filters were allowed to solvate overnight. […] Since the amount of bound radioactivity was at most 28% of the total present, no additional corrections for ligand depletion were applied.

The target of test [3] is T2, BtLBD (Bemisia tabaci, UniProt A0A142K0N3). The test can be described thus: miniaturized automated radioligand-based competition assay, BtLBD. The conditions noted are these: 1.3 nM [3H]ponasterone A, no CHAPS, read-out: Ki from radioligand-based BtLBD assay. The method, then:
as §1

For test [4], the target named is T1, MpLBD. The test can be described thus: FP competitive inhibition assay with MB4628 tracer, MpLBD. The conditions noted are these: 5 nM functional MpLBD, 36 nM MB4628, no CHAPS, Cheng-Prusoff; read-out: FP-derived Ki, MpLBD. The method, then:
(§2) For competitive inhibition assays, each well contained standard FP assay buffer containing 36 nM MB4628 and either 5 nM functional MpLBD or 6 nM functional BtLBD. The BtLBD assays, but not the MpLBD ones, were routinely done in the presence of 2 mM CHAPS. The final volume of all assays were 250 μl.
(§3) The inhibitor concentration at this midpoint was deemed to be the IC50 value for the inhibitor. IC50 values were converted to Ki values using the Cheng-Prusoff equation (Cheng & Prusoff, 1973), as follows: Ki=IC50/(1+([MB4628]tot/Kd)) where [MB-4628]tot is the total concentration of MB4628 in the assay, and Kd is the dissociation constant for MB4628 with the relevant receptor under the conditions of the assay. The Kd values for use in this equation were calculated from the basic FP titration curves (FIG. 3) using the knowledge that the receptor concentration at the titration midpoint is the value at which the receptor is half-saturated with MB4628. The Kd is the free MB4628 concentration at this point, and must therefore be: Kd=[MB4628]tot−([receptor]midpoint)/2

Test [5] deals with T2, BtLBD. The experiment in a line: FP competitive inhibition assay with MB4628 tracer, BtLBD. The note with it: 6 nM functional BtLBD, 36 nM MB4628, 2 mM CHAPS, Cheng-Prusoff; read-out: FP-derived Ki, BtLBD. The protocol:
as §2, §3

As to `COc1ccc2cc(NC(=O)OCC(C)CC[C@@H](O)C(C)(O)C3CC[C@@]4(O)C5=CC(=O)[C@@H]6C[C@@H](O)[C@@H](O)CC6(C)C5CCC34C)c(=O)oc2c1` (some centres unmarked) [MB4603], in test [1], the Ki came to 40 nM and the “ability to compete with [3H]ponasterone A / bind to MpLBD (in words)” value is listed as “unimpaired”.

With `CC(CO)CC[C@@H](O)[C@](C)(O)[C@H]1CC[C@@]2(O)C3=CC(=O)[C@@H]4C[C@@H](O)[C@@H](O)C[C@]4(C)[C@H]3CC[C@]12C` (some centres unmarked) [inokosterone], the Ki in test [1] stood at 65 nM.

“2β,3β,14α,20R,22R,25-hexahydroxy-5β-cholest-7-ene-6-one [20-hydroxyecdysone]”: the Ki came out at 100 nM on MpLBD [2], 240 nM on BtLBD [3], 1490 nM on MpLBD [4] and 994 nM on BtLBD [5].

For the compound `CC(CC[C@@H](O)C(C)(O)C1CC[C@@]2(O)C3=CC(=O)[C@@H]4C[C@@H](O)[C@@H](O)CC4(C)C3CCC12C)COS(=O)(=O)c1cccc2c(N(C)C)cccc12` (some centres unmarked) [MB4622], the “ability to compete with [3H]ponasterone A / bind to MpLBD (in words)” value in test [1] is listed as “highly effective ligand”.
